Experimental data from patent US11384055B2 (BIOMARIN PHARMACEUTICAL INC., priority 2017, dated 2022).
Like-named read-outs stand apart in the source and are kept apart here.

Target: T1, Human GO (Homo sapiens, UniProt Q9UJM8)
T1 construct: purchased Novus Biologicals NBP1-72412
T1 sequence (Q9UJM8 1-370): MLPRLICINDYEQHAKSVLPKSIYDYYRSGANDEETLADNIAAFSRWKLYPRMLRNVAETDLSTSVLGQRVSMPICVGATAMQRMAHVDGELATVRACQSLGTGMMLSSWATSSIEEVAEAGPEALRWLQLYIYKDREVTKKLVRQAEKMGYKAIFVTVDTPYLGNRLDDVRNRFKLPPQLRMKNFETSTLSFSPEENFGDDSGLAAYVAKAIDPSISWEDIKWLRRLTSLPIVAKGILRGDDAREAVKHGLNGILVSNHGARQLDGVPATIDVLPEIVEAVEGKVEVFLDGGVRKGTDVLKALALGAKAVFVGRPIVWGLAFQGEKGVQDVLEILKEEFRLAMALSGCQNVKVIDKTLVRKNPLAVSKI
Experiment: GO enzymatic assay (coupled fluorescence/HRP assay, glycolate substrate)
Assay type: biochemical
Method: Assay 1: GO Enzymatic Assay
GO was incubated with its substrate, glycolate, in 50 mM potassium phosphate buffer, pH 7. […] The enzyme was optimized and the kinetics was determined.
Compound inhibition was determined by adding various concentrations of inhibitors in the GO enzyme assay. The IC50 value for each measured compound was generated from sigmoidal dose-response (variable slope) curves with GraphPad Prism software (GraphPad Software, Inc., San Diego, Calif.) using the percent inhibition of GO activity relative to DMSO control.

[1] = Table 1, read-out: Range (range of IC50 values calculated from the enzymatic assays)

SMILES | IC50 [1] | IC50
O=C(O)c1[nH]nnc1NCc1ccc(-c2ccc(Cl)c(Cl)c2)cc1 [Compound 68, 4-(((3′,4′-dichloro-[1,1′-biphenyl]-4-yl)methyl)amino)-1H-1,2,3-triazole-5-carboxylic acid] | < 100 nM | 
O=C(O)c1[nH]nnc1Nc1ccc(Cl)c(Cl)c1 [Compound 69, 4-((3,4-dichlorophenyl)amino)-1H-1,2,3-triazole-5-carboxylic acid] | < 100 nM | 
O=C(O)c1[nH]nnc1NC1CCCN(c2ccc(OC(F)(F)F)cc2)C1 (centres unmarked) [Compound 70, 4-((1-(4-(trifluoromethoxy)phenyl)piperidin-3-yl)amino)-1H-1,2,3-triazole-5-carboxylic acid] | 100 to 1000 nM | 
O=C(O)c1[nH]nnc1NC1CCN(c2ccc(Cl)cc2)CC1 [Compound 71, 4-((1-(4-chlorophenyl)piperidin-4-yl)amino)-1H-1,2,3-triazole-5-carboxylic acid 2,2,2-trifluoroacetate] | 100 to 1000 nM | 
O=C(OC1CC1)c1[nH]nnc1Nc1ccc(-c2ccc(OC(F)(F)F)cc2)cc1 [Compound 72, cyclopropyl 4-((4′-(trifluoromethoxy)-[1,1′-biphenyl]-4-yl)amino)-1H-1,2,3-triazole-5-carboxylate 2,2,2-trifluoroacetate] | > 10000 nM | 
O=C(O)c1[nH]nnc1NC1CCN(c2ccc(OC(F)(F)F)cc2)C1 (centres unmarked) [Compound 73] | 100 to 1000 nM | 
O=C(O)c1[nH]nnc1NC1CCN(c2ccc(OC(F)(F)F)cc2)CC1 [Compound 74, 4-((1-(4-(trifluoromethoxy)phenyl)piperidin-4-yl)amino)-1H-1,2,3-triazole-5-carboxylic acid] | 100 to 1000 nM | 
CN(c1ccc(-c2ccc(Cl)cc2)cc1)c1nn[nH]c1C(=O)O [Compound 75, 4-((4′-chloro-[1,1′-biphenyl]-4-yl)(methyl)amino)-1H-1,2,3-triazole-5-carboxylic acid 2,2,2-trifluoroacetate] | 100 to 1000 nM | 
O=C(O)c1[nH]nnc1Nc1ccc2cc(Cl)ccc2n1 [Compound 76, 4-((6-chloroquinolin-2-yl)amino)-1H-1,2,3-triazole-5-carboxylic acid] | < 100 nM | 
O=C(O)c1[nH]nnc1Nc1ccc2c(c1)CCCC2 [Compound 77, 4-((5,6,7,8-tetrahydronaphthalen-2-yl)amino)-1H-1,2,3-triazole-5-carboxylic acid] | 1000 to 10000 nM | 
O=C(O)c1[nH]nnc1Nc1ccc(Cl)c2ccccc12 [Compound 78, 4-((4-chloronaphthalen-1-yl)amino)-1H-1,2,3-triazole-5-carboxylic acid] | 100 to 1000 nM | 
O=C(O)c1[nH]nnc1Nc1ccc2ncsc2c1 [Compound 79, 4-(benzo[d]thiazol-6-ylamino)-1H-1,2,3-triazole-5-carboxylic acid] | 1000 to 10000 nM | 
O=C(O)c1[nH]nnc1Nc1ccc(F)c(F)c1 [Compound 80, 4-((3,4-difluorophenyl)amino)-1H-1,2,3-triazole-5-carboxylic acid] | 100 to 1000 nM | 
CC(C)(C)C(=O)OCOC(=O)c1[nH]nnc1Nc1ccc(-c2ccc(Cl)cc2)cc1 [Compound 81, (pivaloyloxy)methyl 4-((4′-chloro-[1,1′-biphenyl]-4-yl)amino)-1H-1,2,3-triazole-5-carboxylate] | 1000 to 10000 nM | 
O=C(O)c1[nH]nnc1Nc1ccc2cc(Cl)ccc2c1 [Compound 82, 4-((6-chloronaphthalen-2-yl)amino)-1H-1,2,3-triazole-5-carboxylic acid 2,2,2-trifluoroacetate] | 100 to 1000 nM | 
O=C(O)c1[nH]nnc1Nc1ccc(OC(F)(F)F)cc1 [Compound 83, 4-((4-(trifluoromethoxy)phenyl)amino)-1H-1,2,3-triazole-5-carboxylic acid] | 100 to 1000 nM | 
O=C(O)c1[nH]nnc1N1CCc2ccccc2C1 [Compound 84, 4-(3,4-dihydroisoquinolin-2(1H)-yl)-1H-1,2,3-triazole-5-carboxylic acid 2,2,2-trifluoroacetate] | 100 to 1000 nM | 
O=C(O)c1[nH]nnc1Nc1ccc2cc(Br)ccc2c1 [Compound 85, 4-((6-bromonaphthalen-2-yl)amino)-1H-1,2,3-triazole-5-carboxylic acid 2,2,2-trifluoroacetate] | < 100 nM | 
O=C(O)c1[nH]nnc1Oc1ccc(-c2ccc(Cl)cc2)cc1 [Compound 86, 4-((4′-chloro-[1,1′-biphenyl]-4-yl)oxy)-1H-1,2,3-triazole-5-carboxylic acid] |  | < 100 nM
O=C(O)c1[nH]nnc1Oc1ccc(-c2ccc(OC(F)(F)F)cc2)cc1 [Compound 87, 4-((4′-(trifluoromethoxy)-[1,1′-biphenyl]-4-yl)oxy)-1H-1,2,3-triazole-5-carboxylic acid] | < 100 nM | 
O=C(O)c1[nH]nnc1Oc1ccc(Cl)c(Cl)c1 [Compound 88, 4-(3,4-dichlorophenoxy)-1H-1,2,3-triazole-5-carboxylic acid] |  | < 100 nM

SMILES | IC50 [1] | IC50
O=C(O)c1[nH]nnc1Oc1ccc2cc(Br)ccc2c1 [Compound 89, 4-((6-bromonaphthalen-2-yl)oxy)-1H-1,2,3-triazole-5-carboxylic acid] | < 100 nM | 
O=C(O)c1[nH]nnc1OC1CCN(c2ccc(OC(F)(F)F)cc2)C1 (centres unmarked) [Compound 90, 4-((1-(4-(trifluoromethoxy)phenyl)pyrrolidin-3-yl)oxy)-1H-1,2,3-triazole-5-carboxylic acid] | < 100 nM | 
O=C(O)c1[nH]nnc1Oc1cc(Cl)cc(Cl)c1 [Compound 91, 4-(3,5-dichlorophenoxy)-1H-1,2,3-triazole-5-carboxylic acid] | < 100 nM | 
O=C(O)c1nn[nH]c1Oc1ccc(Cl)c2ccccc12 [Compound 92, 4-((4-chloronaphthalen-1-yl)oxy)-1H-1,2,3-triazole-5-carboxylic acid] | < 100 nM | 
COC(=O)c1[nH]nnc1Oc1ccc2cc(Br)ccc2c1 [Compound 93, methyl 4-((6-bromonaphthalen-2-yl)oxy)-1H-1,2,3-triazole-5-carboxylate] | > 10000 nM | 
O=C(O)c1[nH]nnc1Oc1ccc(F)c(F)c1 [Compound 94, 4-(3,4-difluorophenoxy)-1H-1,2,3-triazole-5-carboxylic acid] |  | < 100 nM
O=C(O)c1[nH]nnc1Oc1ccc(Cl)cc1Cl [Compound 95, 4-(2,4-dichlorophenoxy)-1H-1,2,3-triazole-5-carboxylic acid] | < 100 nM | 
O=C(O)c1[nH]nnc1Oc1ccc(OC(F)(F)F)cc1 [Compound 96, 4-(4-(trifluoromethoxy)phenoxy)-1H-1,2,3-triazole-5-carboxylic acid] | < 100 nM | 
O=C(O)c1[nH]nnc1Oc1ccc2c(c1)CCCC2 [Compound 97, 4-((5,6,7,8-tetrahydronaphthalen-2-yl)oxy)-1H-1,2,3-triazole-5-carboxylic acid] | < 100 nM | 
O=C(O)c1[nH]nnc1Oc1ccc2ncsc2c1 [Compound 99, 4-(benzo[d]thiazol-6-yloxy)-1H-1,2,3-triazole-5-carboxylic acid 2,2,2-trifluoroacetate] | < 100 nM | 
O=C(O)c1[nH]nnc1Oc1cc(Cl)ccc1Cl [Compound 100, 4-(2,5-dichlorophenoxy)-1H-1,2,3-triazole-5-carboxylic acid] | < 100 nM | 
CC(=O)OCn1nnc(Oc2ccc3cc(Br)ccc3c2)c1C(=O)O [Compound 101, 1-(acetoxymethyl)-4-((6-bromonaphthalen-2-yl)oxy)-1H-1,2,3-triazole-5-carboxylic acid] | 100 to 1000 nM | 
CC(C)(C)C(=O)OCn1nnc(Oc2ccc(Cl)c(Cl)c2)c1C(=O)O [Compound 102, 4-(3,4-dichlorophenoxy)-1-((pivaloyloxy)methyl)-1H-1,2,3-triazole-5-carboxylic acid] |  | 100 to 1000 nM
CC(C)C(=O)OCn1nnc(Oc2ccc(Cl)c(Cl)c2)c1C(=O)O [Compound 103, 4-(3,4-dichlorophenoxy)-1-((isobutyryloxy)methyl)-1H-1,2,3-triazole-5-carboxylic acid] |  | 100 to 1000 nM
CC(=O)OCn1nnc(Oc2ccc(Cl)c(Cl)c2)c1C(=O)O [Compound 104, 1-(acetoxymethyl)-4-(3,4-dichlorophenoxy)-1H-1,2,3-triazole-5-carboxylic acid] |  | 100 to 1000 nM
CC(=O)OCOC(=O)c1[nH]nnc1Oc1ccc2cc(Br)ccc2c1 [Compound 105, acetoxymethyl 4-((6-bromonaphthalen-2-yl)oxy)-1H-1,2,3-triazole-5-carboxylate] | 1000 to 10000 nM | 
O=C(O)c1[nH]nnc1Oc1ccc2cc(Cl)ccc2c1 [Compound 106, 4-((6-chloronaphthalen-2-yl)oxy)-1H-1,2,3-triazole-5-carboxylic acid 2,2,2-trifluoroacetate] | < 100 nM | 
CC(C)(C)C(=O)OCOC(=O)c1[nH]nnc1Oc1ccc(Cl)c(Cl)c1 [Compound 107, (pivaloyloxy)methyl 4-(3,4-dichlorophenoxy)-1H-1,2,3-triazole-5-carboxylate] | 1000 to 10000 nM | 
CC(C)C(=O)OCOC(=O)c1[nH]nnc1Oc1ccc(Cl)c(Cl)c1 [Compound 108, (isobutyryloxy)methyl 4-(3,4-dichlorophenoxy)-1H-1,2,3-triazole-5-carboxylate] | 100 to 1000 nM | 
CC(=O)OCOC(=O)c1[nH]nnc1Oc1ccc(Cl)c(Cl)c1 [Compound 109, acetoxymethyl 4-(3,4-dichlorophenoxy)-1H-1,2,3-triazole-5-carboxylate] | < 100 nM | 
